Test results published in patent US20240109883A1, “Anti-Tumor Compositions and Methods” (priority 2020, published 2024).

Key:
Type in all cases: cell-based
[1] = system: human cytomegalovirus (HCMV); experiment: Antiviral activity against human cytomegalovirus (HCMV) in MRC5 cells; settings: for IC50 / IC90: Human betaherpesvirus 5, 168 h, MRC5 cells, MOI 0.01 IU per cell, 7 days post infection, mCherry positive cells; for Selectivity Index: SI50: MRC5 TOX 7 d CC50 relative to HCMV IC50
Procedure: To assess their antiviral activity, some compounds were tested against human cytomegalovirus (HCMV) in vitro. Human MRC5 cells were grown to confluency (˜1.0×10^4 cells/well) in 96-well plate format in Dulbecco's Modified Eagle Medium (DMEM) supplemented with 10% fetal bovine serum (FBS) 2 mM L-glutamine, 0.1 mM non-essential amino acids, 10 mM HEPES, and 100 U/ml each of penicillin and streptomycin and infected with an HCMV variant expressing mCherry tagged pUL99 (the product of late viral UL99 gene) at a multiplicity of 0.01 infectious unit (IU) per cell. Assays were performed in triplicate. One hour later, medium of the cells was replaced with fresh medium containing the indicated compounds at 25, 12.5, 6.25, 3.13, 1.56, 0.78, 0.39 μM or the carrier in which the compounds are dissolved (DMSO). Final concentration of DMSO was 0.5% in each treatment. Virus yield in the culture was determined at 7 days post infection by quantification of fluorescent (mCherry positive) cells in each well by fluorescent microscopy. Results were plotted using CDD Vault (CDD Vault was developed by Collaborative Drug Discovery, Inc., 1633 Bayshore Hwy, Suite 342, Burlingame, CA 94010) in order to calculate IC50s and IC90s.

MRC5 TOX 7 d = settings: human
MRC5 4d Toxicity Assay = settings: human, confluent MRC5 cells, DAPI cell count, read-out: MRC5 4 d Tox: CC50
Procedure: MRC5 cells were seeded in 96-well plates 1-2 days prior to treatment to ensure 100% confluence. On the day of treatment, cells were washed once and growth media was replaced. Compound (in DMSO) was added to cells using the following dilution scheme: 25, 12.5, 4.16, 1.4, 0.46, 0.15, 0.05 μM. Test concentrations were assayed in duplicate and included 0 μM (DMSO) control wells. Plates were incubated for 4 days. After treatment, cells were washed, fixed with 4% PFA and stained with DAPI. Plates were imaged using a Cytation 3 plate reader and nuclear DAPI staining was used to quantify cell survival. Dose-response plots were generated using CDD Vault to calculate CC50s.

MCF7 cells = experiment: MCF7 Cell Growth Inhibition Assay; settings: Homo sapiens, 24 h, 10% serum, DAPI cell count, 4-pt dilution from 10 μM
Procedure: MCF7 cells were seeded in 96-well plates at 10% confluence 24 h prior to treatment. Compound was added to cells in full growth media containing 10% serum, using a 2-fold, 4-pt dilution scheme beginning from 10 μM (10, 5, 2.5, 1.25 μM). Plates were incubated for 24 h. After treatment, cells were washed, fixed with 4% PFA and stained with DAPI. Plates were imaged using a Cytation 3 plate reader and nuclear DAPI staining was used to quantify cell number. % Growth relative to vehicle-treated (DMSO) control wells was plotted using Excel (See FIGS. 1-8). IC50s were calculated by fitting the data points to the following standard equation:
Growth=1−[Cmpd]^n/(IC50^n+[Cmpd]^n)
where [Cmpd] is the molar concentration of compound, the IC50 is the concentration where half-maximal effect is seen, and n is the Hill coefficient.

cMYC = cMYC Degradation Assay (MDA-MB-231 cells, western blot); settings: 72 hours
Procedure: MDA-MB-231 cells were seeded in 6-well format in complete growth media containing 10% serum and incubated for 48 h to ensure 100% confluence. Compound was added to cells at 5 μM and 10 μM final concentrations for a treatment period of 72 hours. Cells were harvested in ice-cold IP buffer and lysates were cleared by centrifugation. Total protein concentration was determined for each sample by Bradford assay. Proteins were separated by 10% SDS-PAGE and blotted onto PVDF membranes. Membranes were blocked with CosmoBio PDVF blocking reagent for 1 hour, followed by overnight incubation with cMYC primary antibody (Abcam) at 4 C. After several washes, the membanes were probed with secondary antibody for 1 hour at room temperature. Fluorescent signal was acquired using an Odyssey CLx (LI-COR) and quantified using ImageJ software.

| SMILES | IC50 [1] [µM] | IC90 [1] [µM] | Selectivity Index: SI50 [1] | CC50 at 7 d (MRC5 TOX 7 d) [µM] | CC50 at 4 days (MRC5 4d Toxicity Assay) [µM] | GI50 (MCF7 cells) [µM] | MDA-MB-231 cMYC: Fold Decrease in Low MW Band at 5 μM (cMYC) [fold] | MDA-MB-231 cMYC: Fold Increase in High MW Band at 5 μM (cMYC) [fold] | MDA-MB-231 cMYC: Fold Decrease in Low MW Band at 10 μM (cMYC) [fold] | MDA-MB-231 cMYC: Fold Increase in High MW Band at 10 μM (cMYC) [fold] | MDA-MB-231 cMYC qualitative degredation (cMYC) |
| --- | --- | --- | --- | --- | --- | --- | --- | --- | --- | --- | --- |
| NC(=O)Nc1cnc2c(c1)CN(c1ncc(Cc3ccc(-n4cccn4)cc3)s1)CC2 [Example 016] | 5.25 | > 6.77 | >3.0 | > 15.8 |  |  |  |  |  |  |  |
| NC(=O)Nc1ccc2c(c1)CN(c1ncc(Cc3ccc(-n4cccn4)cc3)s1)CC2 [Example 019] | 0.791 | > 6.61 | >8.6 | > 6.77 | > 25 | 11 | 0.62 | 1.18 | 0.9 | 3.2 | partial |
| NC(=O)Nc1ccc2c(c1)CN(c1ncc(Cc3ccc(N4CCOCC4)cc3)s1)CC2 [Example 005] | 1.43 | 2.92 | >7.3 | > 10.4 |  |  |  |  |  |  |  |
| CN(C)C(=O)Nc1ccc2c(c1)CN(c1ncc(Cc3ccc(-n4cccn4)cc3)s1)CC2 [Example 022] | 0.536 | > 4.43 | >8.3 | > 4.43 | > 25 | 18.3 |  |  |  |  |  |
| CNC(=O)N(C)c1ccc2c(c1)CN(c1ncc(Cc3ccc(-n4cccn4)cc3)s1)CC2 [Example 023] | 0.874 | 2.9 | >15.5 | > 13.6 | > 25 | 1.2 | 0.04 | 0.22 | 0.0 | 0.2 | total |
| CN(C(N)=O)c1ccc2c(c1)CN(c1ncc(Cc3ccc(-c4ncccn4)cc3)s1)CC2 [Example 011] | 1.48 | > 10.4 | >7.0 | > 10.4 |  |  | 0.31 | 1.53 | 0.5 | 2.6 | partial |
| NC(=O)Nc1cnc2c(c1)CN(c1ncc(Cc3ccc(N4CCOCC4)cc3)s1)CC2 [Example 018] | 16.1 | 17.7 | >3.1 | > 50 |  |  |  |  |  |  |  |
| CN(C)C(=O)N(C)c1ccc2c(c1)CN(c1ncc(Cc3ccc(-n4cccn4)cc3)s1)CC2 [Example 024] | 1.14 | 5.31 | 18.7 | 21.4 | > 25 | 1.8 |  |  |  |  |  |
| CN(C(N)=O)c1ccc2c(c1)CN(c1ncc(Cc3ccc(-n4cccn4)cc3)s1)CC2 [Example 020] | 1.24 | 4.7 | 2.9 | 3.63 | > 25 | 2.3 |  |  |  |  |  |
| CNC(=O)N(C)c1ccc2c(c1)CN(c1noc(Cc3ccc(-n4cccn4)cc3)n1)CC2 [Example 015] | 2.51 | 5.59 | 17.7 | 44.4 |  |  |  |  |  |  |  |
| CS(=O)(=O)c1ccc(Cc2cnc(N3CCc4ccc(NC(N)=O)cc4C3)s2)cc1 [Example 004] | 5.59 | > 25 | >2.8 | > 15.8 | > 25 | 142 |  |  |  |  |  |
| CNC(=O)N(C)c1ccc2c(c1)CN(c1nnc(Cc3ccc(-n4cccn4)cc3)s1)CC2 [Example 013] | 4.27 | 9.25 | >11.7 | > 50 |  |  |  |  |  |  |  |
| CN(C(N)=O)c1ccc2c(c1)CN(c1ncc(Cc3ccc(N4CCOCC4)cc3)s1)CC2 [Example 012] | 2.13 | > 4.24 | >23.5 | > 50 |  |  |  |  |  |  |  |
| CN1CC(Oc2ccc(Cc3cnc(N4CCc5ccc(NC(N)=O)cc5C4)s3)cc2)C1 [Example 006] | 3.37 | > 50 | 12.9 | 43.4 |  |  |  |  |  |  |  |
| NC(=O)Nc1ccc2c(c1)CN(c1ncc(Cc3ccc(N4CCOC4=O)cc3)s1)CC2 [Example 003] | 5.77 | > 6.77 | >1.2 | > 6.77 | > 25 | 17.5 |  |  |  |  |  |
| NC(=O)Nc1ccc2c(c1)CN(c1ncc(Cc3ccc(N4CCS(=O)(=O)CC4)cc3)s1)CC2 [Example 002] | 2.59 | 7.58 | >19.3 | > 50 |  |  |  |  |  |  |  |
| CNC(=O)Nc1ccc2c(c1)CN(c1ncc(Cc3ccc(-n4cccn4)cc3)s1)CC2 [Example 021] | 1.17 | > 4.43 | >2.5 | > 2.89 | > 25 | 18.3 |  |  |  |  |  |
| CCOc1ccc(Cc2cnc(N3CCc4ccc(N(C)C(N)=O)cc4C3)s2)cc1 [Example 009] | 2.04 | 7.43 | >24.4 | > 50 |  |  |  |  |  |  |  |
| NC(=O)Nc1ccc2c(c1)CN(c1ncc(Cc3ccc(-c4ccco4)cc3)s1)CC2 [Example 007] | 1.19 | > 2.89 | >2.4 | > 2.89 |  |  | 0.63 | 0.9 | 0.8 | 1.3 | no degradation |
| CN(C(N)=O)c1ccc2c(c1)CN(c1ncc(Cc3ccc(OCC4CC4)cc3)s1)CC2 [Example 010] | 2.44 | 7.97 | 6.9 | 16.9 |  |  |  |  |  |  |  |
| NC(=O)Nc1ccc2c(c1)CN(c1ncc(Cc3ccc(-c4ncccn4)cc3)s1)CC2 [Example 001] | 1.46 | 8.72 | >7.1 | > 10.4 | > 25 | 31.7 | 0.98 | 0.84 | 1.2 | 1.7 | no degradation |
| CCOc1ccc(Cc2cnc(N3CCc4ncc(NC(N)=O)cc4C3)s2)cc1 [Example 017] | 6.46 | 47.5 | 7.3 | 47.3 |  |  |  |  |  |  |  |
